Results published in patent publication US20090306058A1, “Sulphone Derivatives for Treatment of Cancer” (priority 2005, published 2009).

Tested on: Cells expressing Notch (ALL-SIL, DND-41, HPB-ALL or TALL-1)
Assay: Assay for Cell Cycle Arrest
Format: cell-based
Conditions: concentrations up to 10 μM, incubation typically 4-8 days, in comparison to untreated controls
Protocol: Cells expressing Notch (ALL-SIL, DND-41, HPB-ALL or TALL-1) (Weng et al, Science, 306 (2004), 269-71) were incubated in the presence or absence of a compound of the instant invention (e.g. the compound of Examples 2 and 7 below) at concentrations up to 10 μM. At the end of the incubation (typically 4-8 days), the cells were collected, fixed in 70% ethanol on ice for >2 hours, washed, then labelled for 15 min at 37° C. with propidium iodide (0.2 mg/ml) (PI) in the presence of 0.1% Triton X100 and 0.2 mg/ml RNase and subjected to FACS analysis.

CC[C@@H]1C[C@H]2C[C@@](c3cc(F)ccc3F)(S(=O)(=O)c3ccc(C(F)(F)F)cc3)CC[C@H]2NS1(=O)=O [Example 2, (3R,4aS,6S,8aR)-6-(2,5-difluorophenyl)-3-ethyl-6-{[4-(trifluoromethyl)phenyl]sulfonyl}octahydro-1H-2,1-benzothiazine 2,2-dioxide]
cell cycle populations by FACS (propidium iodide): severe loss of G2- and S-phase populations
